Results published in ChEMBL document CHEMBL1158189, “New taxane diterpenoids from the roots of Taxus mairei” (J Nat Prod, 1996).
≈ marks a conversion by molar mass, not a printed value.

Tests used:
Format in all cases: functional, cell-based
HT-29 = assay: Cytotoxicity against human HT29 cells after 72 hrs; details: HT-29, 72 h
A549 = assay: Cytotoxicity against human A549 cells after 72 hrs; details: A549, 72 h
[1] = Cytotoxicity against human KB16 cells after 72 hrs; details: KB16, 72 h
P388 = assay: Cytotoxicity against mouse P388 cells after 72 hrs; details: P388, 72 h

SMILES	IC50 (HT-29) [µg/mL]	IC50 (A549) [µg/mL]	IC50 [1] [µg/mL]	IC50 (P388) [µg/mL]
CC(=O)O[C@H]1C[C@H]2[C@@H](O)[C@@H]3[C@](O)(COC(=O)c4ccccc4)[C@@H](OC(C)=O)C[C@H](OC(C)=O)[C@@]3(C)[C@@H](OC(C)=O)[C@H](OC(C)=O)C(=C1C)C2(C)C [TAXUMAIROL A]	1 (≈ 1.4 µM)	1.7 (≈ 2.37 µM)	0.4 (≈ 0.558 µM)	0.05 (≈ 0.0698 µM)
CC(=O)O[C@H]1C[C@H]2[C@@H](OC(=O)c3ccccc3)[C@@H]3[C@](O)(CO)[C@@H](OC(C)=O)C[C@H](OC(C)=O)[C@@]3(C)[C@@H](OC(C)=O)[C@H](OC(C)=O)C(=C1C)C2(C)C	1.4 (≈ 1.95 µM)	4.8 (≈ 6.7 µM)	1 (≈ 1.4 µM)	2.4 (≈ 3.35 µM)
CC(=O)O[C@H]1C[C@@]2(O)[C@@H](OC(C)=O)[C@@H]3[C@@]4(CO4)[C@@H](OC(C)=O)C[C@H](O)[C@@]3(C)[C@@H](O)[C@H](OC(C)=O)C(=C1C)C2(C)C [TAXUMAIROL B]	> 50	> 50	1.4 (≈ 2.46 µM)	> 50
